Data from ChEMBL document CHEMBL1201862, “PubChem BioAssay data set” (2004).
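The compound was tested at five concentrations on cells cultured in 96-well plates, with a 48-hour exposure period. At the GI50, growth is halved.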 Activity calls are given as the source filed them. No stated cut-off is given here; in the data, active = GI50 up to about 1.1 µM and inactive = higher.

What was measured:
Test in all cases: DTP human tumour cell line panel, 48 h
[1] = system: A498
[2] = system: MDA-MB-231
[3] = system: NCI-H522
[4] = system: NCI-H226
[5] = system: IGROV-1
[6] = system: HCT-15
[7] = system: OVCAR-4
[8] = system: SR
[9] = system: SK-MEL-2
[10] = system: SF-539
[11] = system: HOP-62
[12] = system: MDA-MB-435
[13] = system: A549
[14] = system: SK-MEL-5
[15] = system: SF-268
[16] = system: NCI/ADR-RES
[17] = system: T47D
[18] = system: CAKI-1
[19] = system: COLO 205
[20] = system: M14

Compound	GI50 [1]	GI50 [2]	GI50 [3]	GI50 [4]	GI50 [5]	GI50 [6] [µM]	GI50 [7]	GI50 [8]	GI50 [9]	GI50 [10]	GI50 [11]	GI50 [12]	GI50 [13]	GI50 [14]	GI50 [15]	GI50 [16]	GI50 [17]	GI50 [18]	GI50 [19]	GI50 [20]
Cc1ccc(Nc2nnc(-c3ccc4c(c3)OCO4)o2)c(C)c1	39.6 µM (inactive)	62.2 µM (inactive)	30.5 µM (inactive)	> 100 µM (inactive)	> 100 µM (inactive)	> 100	> 100 µM (inactive)	31.1 µM (inactive)	> 100 µM (inactive)	64.6 µM (inactive)	> 100 µM (inactive)	> 100 µM (inactive)	> 100 µM (inactive)	> 100 µM (inactive)	64.4 µM (inactive)	> 100 µM (inactive)	36.2 µM (inactive)	> 100 µM (inactive)	> 100 µM (inactive)	> 100 µM (inactive)
CC[C@@H]1CN(C)[C@H]2Cc3c([nH]c4ccccc34)C(=O)C[C@H]1C2C(=O)OC (stereo not given in full)	> 100 µM (inactive)	> 100 µM (inactive)	> 100 µM (inactive)	> 100 µM (inactive)	> 100 µM (inactive)	> 100	> 31.6 µM (inactive)	> 100 µM (inactive)	> 100 µM (inactive)	> 100 µM (inactive)	> 72.8 µM (inactive)	> 100 µM (inactive)	> 100 µM (inactive)	> 100 µM (inactive)	> 100 µM (inactive)	> 95.7 µM (inactive)	> 100 µM (inactive)	> 100 µM (inactive)	> 100 µM (inactive)	> 100 µM (inactive)
CN(C)c1ccc2c3c(c(=O)oc2c1)CCC3	29.4 µM (inactive)	28.7 µM (inactive)	26.7 µM (inactive)	85.5 µM (inactive)	84.1 µM (inactive)	50.7	> 100 µM (inactive)	42.6 µM (inactive)	> 100 µM (inactive)	> 100 µM (inactive)	44 µM (inactive)	57.9 µM (inactive)	51.3 µM (inactive)	36.8 µM (inactive)	34.8 µM (inactive)	65.8 µM (inactive)	36.1 µM (inactive)	43.8 µM (inactive)	33.1 µM (inactive)	92.3 µM (inactive)
O=C1c2n[nH]nc2C(=O)c2n[nH]nc21	> 100 µM (inactive)	> 100 µM (inactive)	> 100 µM (inactive)	> 39.2 µM (inactive)	> 66.4 µM (inactive)	> 100	> 100 µM (inactive)	> 100 µM (inactive)	> 100 µM (inactive)	> 100 µM (inactive)	> 100 µM (inactive)	> 100 µM (inactive)	> 100 µM (inactive)	> 100 µM (inactive)	> 100 µM (inactive)	> 100 µM (inactive)	> 100 µM (inactive)	> 100 µM (inactive)	> 100 µM (inactive)	> 100 µM (inactive)
COC(=O)[C@@H]1c2cc3c(c(O)c2[C@@H](OC2OC(C)C(OC)C(C)(OC)C2OC)C[C@]1(C)O)C(=O)c1c(O)cc2c(c1C3=O)O[C@H]1O[C@]2(C)[C@H](O)[C@@H](N(C)C)[C@@H]1O (stereo not given in full)	0.000507 µM (active)	0.0288 µM (active)	0.0138 µM (active)	0.00427 µM (active)	0.0101 µM (active)	0.247	0.0191 µM (active)	0.00294 µM (active)	0.00337 µM (active)	0.0246 µM (active)	0.0359 µM (active)	0.0612 µM (active)	0.0156 µM (active)	0.00849 µM (active)	0.00585 µM (active)	0.299 µM (active)	0.0276 µM (active)	0.0419 µM (active)	0.00629 µM (active)	0.0317 µM (active)
FC(F)(F)C1(C(F)(F)F)C2CCC3(CC(F)(F)C(F)(F)S3)C1C2 (stereo not given)	57 µM (inactive)	> 100 µM (inactive)	56.2 µM (inactive)	64.7 µM (inactive)	87.7 µM (inactive)	62.8	80.5 µM (inactive)	21.3 µM (inactive)	22.6 µM (inactive)	> 100 µM (inactive)	48.4 µM (inactive)	86.7 µM (inactive)	38.9 µM (inactive)	44.3 µM (inactive)	44.6 µM (inactive)	> 100 µM (inactive)	> 100 µM (inactive)	98.2 µM (inactive)	31.5 µM (inactive)	> 100 µM (inactive)
O=C1OC[C@@H]2Cc3c([nH]c4ccccc34)[C@@H](c3ccc(O)cc3)N12	41.7 µM (inactive)	29.6 µM (inactive)	29.3 µM (inactive)	29 µM (inactive)	24.8 µM (inactive)	37.8	32.4 µM (inactive)	39.1 µM (inactive)	22 µM (inactive)	24.4 µM (inactive)	35.6 µM (inactive)	24.7 µM (inactive)	26.8 µM (inactive)	17.2 µM (inactive)	42.6 µM (inactive)	34.7 µM (inactive)	51.5 µM (inactive)	42.8 µM (inactive)	22.4 µM (inactive)	23.1 µM (inactive)
CCOC(=O)/C(=C\c1ccc(F)cc1)C(C)=O	17.8 µM (inactive)	22.6 µM (inactive)	14.3 µM (inactive)	35.5 µM (inactive)	18.2 µM (inactive)	20.7	28 µM (inactive)	19 µM (inactive)	21.2 µM (inactive)	34 µM (inactive)	38.9 µM (inactive)	30.1 µM (inactive)	45.3 µM (inactive)	24.4 µM (inactive)	29.1 µM (inactive)	35.6 µM (inactive)	21.8 µM (inactive)	24.3 µM (inactive)	36 µM (inactive)	22.9 µM (inactive)
CC(=O)Oc1ccc2c(c1)CC[C@@H]1C2[C@@H](O[N+](=O)[O-])C[C@@]2(C)C1CC[C@@H]2O (stereo not given in full)	31.2 µM (inactive)	39.1 µM (inactive)	21.1 µM (inactive)	48.8 µM (inactive)	55.3 µM (inactive)	28.9	52.1 µM (inactive)	16.4 µM (inactive)	32.1 µM (inactive)	25.6 µM (inactive)	17.1 µM (inactive)	7.31 µM (inactive)	37.3 µM (inactive)	24.7 µM (inactive)	32.6 µM (inactive)	26.9 µM (inactive)	47.4 µM (inactive)	78 µM (inactive)	50.8 µM (inactive)	28.3 µM (inactive)
CO/C=C(/C(=O)OC)c1ccccc1[C@@H]1CC1c1cccc(F)c1 (stereo not given in full)	25.6 µM (inactive)	29.9 µM (inactive)	14.2 µM (inactive)	25.6 µM (inactive)	18.2 µM (inactive)	23.4	20.2 µM (inactive)	21.2 µM (inactive)	16.9 µM (inactive)	28.4 µM (inactive)	51.6 µM (inactive)	19.3 µM (inactive)	20.6 µM (inactive)	12.3 µM (inactive)	37.5 µM (inactive)	30.5 µM (inactive)	20.4 µM (inactive)	18.6 µM (inactive)	15.7 µM (inactive)	19.8 µM (inactive)
